Laboratory results from patent US5578622A, “Isothiazole derivatives and their uses” (Asamura Patent Office, priority 1994, dated 1996).

Experiments:
Format in all cases: cell-based
Aspergillus niger = experiment: Test for wood rotting-preventing effect (mycelium growth inhibition on malt extract agar); details: 28° C.±2° C., 2 to 10 days, read-out: Rotting preventing effect (mycelium growth-inhibitory rate), ASN
Outline: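 Mycelial agar disks (4 mm) placed on malt extract agar containing 50 ppm test compound, incubated at 28° C.±2° C. Colony diameter measured 2–10 days after inoculation; growth-inhibitory rate (%) reported as symbol-coded score.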

Tyromyces palustris = experiment: as above; details: 28° C.±2° C., 2 to 10 days, read-out: Rotting preventing effect (mycelium growth-inhibitory rate), TYP
Outline: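 Mycelial agar disks (4 mm) were placed on malt extract agar containing test compound at 50 ppm and grown at 28° C.±2° C. Colony diameter was measured 2-10 days after inoculation and converted to percent mycelium growth inhibition, reported as symbol grades.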

[1] = test system: Aspergillus fumigatus TIMM 0063; experiment: In vitro antimycotic activity on Aspergillus fumigatus; details: TIMM0063, 10 (ppm), Casitone agar, 37° C., 48 hours, read-out: Antimycotic activity (growth inhibitory rate), A.fumigatus
Procedure: 3-2 In vitro antimycotic activity on Aspergillus fumigatus.
To Aspergillus fumigatus TIMM 0063 precultured at 37° C. for 48 hours on a potato dextrose agar (PDA) slant medium was added a sterilized physiological salt solution containing 0.1%(W/V) Tween 80. After conidia were made free from the solution, the solution was filtered through a sterilized two-sheet gauze to remove the mycelium mass. The number of the conidia in the resulting suspension was counted with a globulimeter and adjusted so as to be 1×10^5 conidia/ml with a sterilized physiological salt solution containing 0.1%(W/V) Tween 80. This solution was used as an inoculum solution. Casitone agar plate medium containing the DMSO solution of the test compound in a rate of 1% (V/V) was inoculated with the inoculum solution at four places thereof with a microplanter, and cultured with the medium allowed to stand at 37° C. for 48 hours. After culture, the diameter of the mycelium disks cultivated at the four inoculated parts was measured, and its mean value was obtained. The growth inhibitory rate was calculated according to the following equation, and the antimycotic activity was shown in the same manner as in Test Example 3-1.
Growth inhibitory rate (%)=(1-W'/Y')×100
Y': Diameter of mycelium disk of DMSO control group
W': Diameter of mycelium disk of test compound group

`N#Cc1c(OC(F)F)nsc1OCCC#CI` [Compound 82] gave an inhibition at 50 ppm (Aspergillus niger) of 95 to 100%, an inhibition at 50 ppm (Tyromyces palustris) of 95 to 100% and an inhibition of growth at 10 µg/mL [1] of 100%.
For `CCOc1nsc(SCOCC#CI)c1C#N` [Compound 54], the inhibition at 50 ppm (Aspergillus niger) was 95 to 100%, the inhibition at 50 ppm (Tyromyces palustris) was 95 to 100% and the inhibition of growth at 10 µg/mL [1] was 100%.
Work on `CSc1snc(OCCC#CI)c1C#N` [Compound 70] yielded an inhibition at 50 ppm (Aspergillus niger) of 95 to 100%, an inhibition at 50 ppm (Tyromyces palustris) of 95 to 100% and an inhibition of growth at 10 µg/mL [1] of 100%.
With `N#Cc1c(OC(F)F)nsc1SCOCC#CI` [Compound 60] the inhibition at 50 ppm (Aspergillus niger) was 95 to 100%, the inhibition at 50 ppm (Tyromyces palustris) was 95 to 100% and the inhibition of growth at 10 µg/mL [1] was 100%.
Molecule `CC(C)Oc1snc(OCC#CI)c1C#N` [Compound 23] has an inhibition at 50 ppm (Aspergillus niger) of 95 to 100%, an inhibition at 50 ppm (Tyromyces palustris) of 95 to 100% and an inhibition of growth at 10 µg/mL [1] of 100%.
Work on `COc1snc(OCC#CI)c1C#N` [Compound 21, 3-(3-iodo-2-propynyloxy)-4-cyano-5-methoxyisothiazole] yielded an inhibition at 50 ppm (Aspergillus niger) of 95 to 100%, an inhibition at 50 ppm (Tyromyces palustris) of 95 to 100% and an inhibition of growth at 10 µg/mL [1] of 100%.
Work on `CS(=O)(=O)c1snc(OCC#CI)c1C#N` [Compound 41, 3-(3-iodo-2-propynyloxy)-4-cyano-5-methylsulfonylisothiazole] yielded an inhibition at 50 ppm (Aspergillus niger) of 95 to 100%, an inhibition at 50 ppm (Tyromyces palustris) of 95 to 100% and an inhibition of growth at 10 µg/mL [1] of 100%.
In the case of `CSc1nsc(SCOCC#CI)c1C#N` [Compound 136], the inhibition at 50 ppm (Aspergillus niger) is reported as 95 to 100%, the inhibition at 50 ppm (Tyromyces palustris) is reported as 95 to 100% and the inhibition of growth at 10 µg/mL [1] is reported as 100%.
`N#Cc1c(OCC#CI)nsc1S(=O)(=O)C(F)F` [Compound 43] gave an inhibition at 50 ppm (Aspergillus niger) of 95 to 100%, an inhibition at 50 ppm (Tyromyces palustris) of 95 to 100% and an inhibition of growth at 10 µg/mL [1] of 100%.
Work on `CSc1snc(OCC#CI)c1C#N` [Compound 1, 3-(3-iodo-2-propynyloxy)-4-cyano-5-methylthioisothiazole] yielded an inhibition at 50 ppm (Aspergillus niger) of 80 to 94%, an inhibition at 50 ppm (Tyromyces palustris) of 95 to 100% and an inhibition of growth at 10 µg/mL [1] of 100%.
`N#Cc1c(OCC#CI)nsc1SC(F)F` [Compound 12, 3-(3-iodo-2-propynyloxy)-4-cyano-5-difluoromethylthioisothiazole] showed an inhibition at 50 ppm (Aspergillus niger) of 95 to 100%, an inhibition at 50 ppm (Tyromyces palustris) of 95 to 100% and an inhibition of growth at 10 µg/mL [1] of 100%.
`CCOc1snc(OCOCC#CI)c1C#N` [Compound 96] was tested, and the inhibition at 50 ppm (Aspergillus niger) was 95 to 100%, the inhibition at 50 ppm (Tyromyces palustris) was 95 to 100% and the inhibition of growth at 10 µg/mL [1] was 100%.
In the case of `N#Cc1c(OCOCC#CI)nsc1SC(F)F` [Compound 90], the inhibition at 50 ppm (Aspergillus niger) is reported as 95 to 100%, the inhibition at 50 ppm (Tyromyces palustris) is reported as 95 to 100% and the inhibition of growth at 10 µg/mL [1] is reported as 100%.
In the case of `COc1nsc(OCC#CI)c1C#N` [Compound 48], the inhibition at 50 ppm (Aspergillus niger) is reported as 95 to 100%, the inhibition at 50 ppm (Tyromyces palustris) is reported as 95 to 100% and the inhibition of growth at 10 µg/mL [1] is reported as 100%.
Molecule `CN(C)c1snc(OCC#CI)c1C#N` [Compound 30, 3-(3-iodo-2-propynyloxy)-4-cyano-5-dimethylaminoisothiazole] has an inhibition at 50 ppm (Aspergillus niger) of 95 to 100%, an inhibition at 50 ppm (Tyromyces palustris) of 95 to 100% and an inhibition of growth at 10 µg/mL [1] of 100%.
Molecule `CSc1snc(OC(C)OCC#CI)c1C#N` (stereo not drawn) [Compound 119] has an inhibition at 50 ppm (Aspergillus niger) of 95 to 100%, an inhibition at 50 ppm (Tyromyces palustris) of 95 to 100% and an inhibition of growth at 10 µg/mL [1] of 100%.
